# From patent US10329261B1, “Method of preparing 6-chloro-5-nitro-2,4-diaminopyrimidine and its application thereof” (XI'AN TAIKOMED PHARMACEUTICAL TECHNOLOGY CO., LTD., priority 2018, dated 2019)
# Tests used:
# [1] = test system: HL-60; assay: CCK8 assay, growth inhibition of leukemia cells; assay type: cell-based; settings: for inhibition at 1 µM / inhibition at 5 µM / inhibition at 10 µM / inhibition at 50 µM / inhibition at 100 µM: Homo sapiens, 48 hours, read-out: Inhibition Rate % (X ± SD, n = 5); for inhibition at 1 µM: HL-60, 1 μmol/L; for inhibition at 5 µM: HL-60, 5 μmol/L; for inhibition at 10 µM: HL-60, 10 μmol/L; for inhibition at 50 µM: HL-60, 50 μmol/L; for inhibition at 100 µM: HL-60, 100 μmol/L
# Procedure: (§1) Measuring the Inhibitory Effect of 6-Chloro-5-Nitro-2,4-Diaminopyrimidine on the Growth of Six Leukemia Cells by CCK8 Assay
# (§2) Cell lines: HL-60 (acute myeloid leukemia), Jurkat (acute T cell leukemia), K562 (chronic myeloid leukemia), EOL-1 (human eosinophil leukemia), Dami (human megakaryocytic leukemia), 6T-CEM (human T cell leukemia) were provided by the Affiliated Hospital of Guangdong Medical College. The cells were cultured in RPMI1640 medium containing 10% fetal bovine serum, penicillin 100 U/mL, streptomycin 100 mg/L, at 37° C., 5% CO2, and saturated humidity, in incubator, and logarithmic growth phase cells were used for experiments.
# (§3) Test compounds: Imatinib solution and 6-chloro-5-nitro-2,4-diaminopyrimidine solution were prepared with physiological saline, and the final concentrations of the compounds were 1, 5, 10, 50, and 100 μmol/L.
# (§4) Test method: Take the logarithmic growth leukemia cell lines, count, and inoculate at a density of 1×10^5/mL in a 96-well culture plate, 100 μL per well. After 24 hours of culture, 100 μL medium containing the different concentrations (double the target/final concentration) of compounds was added to each well. The medium containing the highest concentration of DMSO was used as a control. After 48 hours, 20 μL of CCK8 coloring solution was added to each well, the color was developed at 37° C., and OD450 was measured with a microplate reader until the absorbance was about 1.5. The inhibition rate was calculated by the following formula. Inhibition Rate (%)=(1−absorbance of the test compound/absorbance of the control)×100%
# [2] = test system: Jurkat; assay: CCK8 assay, growth inhibition of leukemia cells; assay type: cell-based; settings: for inhibition at 1 µM / inhibition at 5 µM / inhibition at 10 µM / inhibition at 50 µM / inhibition at 100 µM: Homo sapiens, 48 hours, read-out: Inhibition Rate % (X ± SD, n = 5); for inhibition at 1 µM: 1 μmol/L; for inhibition at 5 µM: 5 μmol/L; for inhibition at 10 µM: 10 μmol/L; for inhibition at 50 µM: 50 μmol/L; for inhibition at 100 µM: 100 μmol/L
# Procedure: as §1, §2, §3, §4
# [3] = test system: K-562; assay: CCK8 assay, growth inhibition of leukemia cells; assay type: cell-based; settings: for inhibition at 1 µM / inhibition at 5 µM / inhibition at 10 µM / inhibition at 50 µM / inhibition at 100 µM: Homo sapiens, K562, 48 hours, read-out: Inhibition Rate % (X ± SD, n = 5); for inhibition at 1 µM: K-562, 1 μmol/L; for inhibition at 5 µM: K-562, 5 μmol/L; for inhibition at 50 µM: K-562, 50 μmol/L; for inhibition at 100 µM: K-562, 100 μmol/L
# Procedure: as §1, §2, §3, §4
# [4] = test system: 6T-CEM; assay: CCK8 assay, growth inhibition of leukemia cells; assay type: cell-based, human; settings: for inhibition at 1 µM / inhibition at 5 µM / inhibition at 10 µM / inhibition at 50 µM / inhibition at 100 µM: Homo sapiens, 48 hours, read-out: Inhibition Rate % (X ± SD, n = 5); for inhibition at 1 µM: 1 μmol/L; for inhibition at 5 µM: 5 μmol/L; for inhibition at 10 µM: 10 μmol/L; for inhibition at 50 µM: 50 μmol/L; for inhibition at 100 µM: 100 μmol/L
# Procedure: as §1, §2, §3, §4
# [5] = test system: Dami; assay: CCK8 assay, growth inhibition of leukemia cells; assay type: cell-based, human; settings: for inhibition at 1 µM / inhibition at 5 µM / inhibition at 10 µM / inhibition at 50 µM / inhibition at 100 µM: Homo sapiens, 48 hours, read-out: Inhibition Rate % (X ± SD, n = 5); for inhibition at 1 µM: 1 μmol/L; for inhibition at 5 µM: 5 μmol/L; for inhibition at 10 µM: 10 μmol/L; for inhibition at 50 µM: 50 μmol/L; for inhibition at 100 µM: 100 μmol/L
# Procedure: as §1, §2, §3, §4
# [6] = test system: EOL-1; assay: CCK8 assay, growth inhibition of leukemia cells; assay type: cell-based, human; settings: for inhibition at 1 µM / inhibition at 5 µM / inhibition at 10 µM / inhibition at 50 µM / inhibition at 100 µM: Homo sapiens, EOL1, 48 hours, read-out: Inhibition Rate % (X ± SD, n = 5); for inhibition at 1 µM: EOL-1, 1 μmol/L; for inhibition at 5 µM: EOL-1, 5 μmol/L; for inhibition at 10 µM: EOL-1, 10 μmol/L; for inhibition at 50 µM: EOL-1, 50 μmol/L; for inhibition at 100 µM: EOL-1, 100 μmol/L
# Procedure: as §1, §2, §3, §4
# [7] = test system: K-562 leukemia; assay: Inhibition test of nude mice inoculated with K-562 cell line; assay type: in vivo; settings: for Tumor weight (X ± SE) / Inhibition (%): ip × 7, nude mice with K-562; for Tumor weight (X ± SE): in g (unit assumed); for Inhibition (%): tumor inhibition rate
# Procedure: Inhibition Test of Nude Mice Inoculated with K-562 Cell Line
# Test compounds: 6-chloro-5-nitro-2,4-diaminopyrimidine and imatinib dissolved in normal saline.
# Administration route: intraperitoneal injection (ip).
# Test animals: nude mice, SPF level.
# Cell line: chronic myeloid leukemia cell line K-562, from the Affiliated Hospital of Guangdong Medical College
# Test method: 50 nude mice weighing 18-22 grams, both male and female. The K-562 cell was diluted to a final concentration of 10 million cells/mL for leukemia cells; each mouse was inoculated subcutaneously with 0.2 mL (containing […] leukemia cells). On the next day, the mice were randomly divided to 5 groups: 6-chloro-5-nitro-2,4-diaminopyrimidine group (dose: 3 mg/kg), 6-chloro-5-nitro-2,4-diaminopyrimidine group (dose: 8 mg/kg), 6-chloro-5-nitro-2,4-diaminopyrimidine group (dose: 20 mg/kg), positive control group (imatinib, 8 mg/kg) and blank control group. The 6-chloro-5-nitro-2,4-diaminopyrimidine groups and the positive control group were administered once a day for 7 consecutive days; the blank control group was given a corresponding volume of NS liquid. No test compounds were given for one day after the last dose. Animals were sacrificed by cervical dislocation, and weighed and dissected to weigh. The tumor weights were calculated for each group. The leukemia inhibition rate was calculated according to the following formula. Tumor inhibition rate=(mean tumor weight in the control group−average tumor weight in the administration group)/mean tumor weight in the control group×100%,
compound,measurement,setting,value
"Nc1nc(N)c([N+](=O)[O-])c(Cl)n1 [6-chloro-5-nitro-2,4-diaminopyrimidine]",inhibitory effect on the cell line (in words),[1]; HL-60,does not show any inhibition
same,inhibition at 1 µM,[1],3.87%
same,inhibition at 5 µM,[1],-1.12%
same,inhibition at 10 µM,[1],-7.66%
same,inhibition at 50 µM,[1],-9.26%
same,inhibition at 100 µM,[1],-14.2%
same,inhibitory effect on the cell line (in words),[2],does not show any inhibition
same,inhibition at 1 µM,[2],-13.5%
same,inhibition at 5 µM,[2],-15.9%
same,inhibition at 10 µM,[2],-27%
same,inhibition at 50 µM,[2],-28.1%
same,inhibition at 100 µM,[2],-30%
same,inhibition at 1 µM,[3],45.5%
same,inhibition at 5 µM,[3],61.5%
same,inhibition at 10 µM,"[3]; K-562, 10 μmol/L",76.8%
same,inhibition at 50 µM,[3],77.3%
same,inhibition at 100 µM,[3],78.4%
same,inhibition rate compared with imatinib,"[3]; K-562, 10 μmol/L",exceeds that of imatinib
same,inhibitory effect on the cell line (in words),[3]; K-562 cell line,good inhibitory effect
same,selectivity among the six leukemia cell lines (in words),"[3]; K-562 versus HL-60, Jurkat, EOL-1, Dami, 6T-CEM",selectively inhibits chronic myelogenous leukemia cell line
same,inhibitory effect on the cell line (in words),[4],does not show any inhibition
same,inhibition at 1 µM,[4],-17.5%
same,inhibition at 5 µM,[4],-21.1%
same,inhibition at 10 µM,[4],-25.5%
same,inhibition at 50 µM,[4],-28.1%
same,inhibition at 100 µM,[4],-31%
same,inhibitory effect on the cell line (in words),[5],does not show any inhibition
same,inhibition at 1 µM,[5],-14.2%
same,inhibition at 5 µM,[5],-17.7%
same,inhibition at 10 µM,[5],-22%
same,inhibition at 50 µM,[5],-26%
same,inhibition at 100 µM,[5],-30.3%
same,inhibitory effect on the cell line (in words),[6]; EOL-1,does not show any inhibition
same,inhibition at 1 µM,[6],-22.4%
same,inhibition at 5 µM,[6],-23%
same,inhibition at 10 µM,[6],-23.3%
same,inhibition at 50 µM,[6],-19.3%
same,inhibition at 100 µM,[6],-18.9%
same,Tumor weight (X ± SE),[7]; 3 mg/kg,1.84
same,Tumor weight (X ± SE),[7]; 8 mg/kg,0.87
same,Tumor weight (X ± SE),[7]; 20 mg/kg,0.74
same,Inhibition (%),[7]; 3 mg/kg,48.41%
same,Inhibition (%),[7]; 8 mg/kg,75.18%
same,Inhibition (%),[7]; 20 mg/kg,79.34%
"Cc1ccc(NC(=O)c2ccc(CN3CCN(C)CC3)cc2)cc1Nc1nccc(-c2cccnc2)n1 [Imatinib, reference compound]",inhibition at 1 µM,[1],62.2%
same,inhibition at 5 µM,[1],69.5%
same,inhibition at 10 µM,[1],64.6%
same,inhibition at 50 µM,[1],83.1%
same,inhibition at 100 µM,[1],84.5%
same,inhibition at 1 µM,[2],66.7%
same,inhibition at 5 µM,[2],71%
same,inhibition at 10 µM,[2],73.3%
same,inhibition at 50 µM,[2],85.7%
same,inhibition at 100 µM,[2],90.9%
same,inhibition at 1 µM,[3],66.4%
same,inhibition at 5 µM,[3],67.9%
same,inhibition at 10 µM,"[3]; K-562, 10 μmol/L",71.6%
same,inhibition at 50 µM,[3],83.1%
same,inhibition at 100 µM,[3],88.3%
same,inhibition at 1 µM,[4],68.2%
same,inhibition at 5 µM,[4],70.8%
same,inhibition at 10 µM,[4],74.9%
same,inhibition at 50 µM,[4],86.5%
same,inhibition at 100 µM,[4],91.3%
same,inhibition at 1 µM,[5],61.3%
same,inhibition at 5 µM,[5],65.4%
same,inhibition at 10 µM,[5],69.3%
same,inhibition at 50 µM,[5],82.1%
same,inhibition at 100 µM,[5],89.4%
same,inhibition at 1 µM,[6],63.6%
same,inhibition at 5 µM,[6],66.2%
same,inhibition at 10 µM,[6],68.4%
same,inhibition at 50 µM,[6],79.1%
same,inhibition at 100 µM,[6],86.4%
same,Number of mice before and after,"[7]; 8 mg/kg, ip × 7",10/10
same,Tumor weight (X ± SE),[7]; 8 mg/kg,0.93
same,Mouse weight after,"[7]; 8 mg/kg, ip × 7, weight before 19.5",20.4
same,Inhibition (%),[7]; 8 mg/kg,74.02%
